# From ChEMBL document CHEMBL1201862, “PubChem BioAssay data set” (2004)
#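 All cell lines were grown in 96-well plates and treated with compound for 48 hours. GI50 is the concentration that inhibits growth by half.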 Active and inactive are the calls of the source. No stated cut-off is given here; in the data, active = GI50 up to about 1.1 µM and inactive = higher. Square brackets hold non-standard residues; d marks the D form. Peptide text beside a SMILES is read from it. ξ: configuration not given here. ξ2Thi = NC(Cc1cccs1)C(=O)O; ξR = N=C(N)NCCCC(N)C(=O)O; ξI = CCC(C)C(N)C(=O)O; ξL = CC(C)CC(N)C(=O)O; ξK = NCCCCC(N)C(=O)O; ξT = CC(O)C(N)C(=O)O; ξA = CC(N)C(=O)O
# Tests used:
# Test in all cases: NCI-60 cell line screen, 48 h
# [1] = system: SK-MEL-5
# [2] = system: M14
# [3] = system: 786-0
# [4] = system: ACHN
# [5] = system: HL-60
# [6] = system: NCI-H522
# [7] = system: SW-620
# [8] = system: DU-145
# [9] = system: COLO 205
# [10] = system: Malme-3M
# [11] = system: RXF 393
# [12] = system: MDA-N
# [13] = system: OVCAR-3
# [14] = system: OVCAR-4
# [15] = system: SK-MEL-2
# [16] = system: SF-268
# [17] = system: UACC-62
# [18] = system: HOP-62
# [19] = system: SN12C
# [20] = system: MCF7
Compound,GI50 [1],GI50 [2],GI50 [3],GI50 [4],GI50 [5],GI50 [6],GI50 [7],GI50 [8],GI50 [9],GI50 [10],GI50 [11],GI50 [12],GI50 [13],GI50 [14],GI50 [15],GI50 [16],GI50 [17],GI50 [18],GI50 [19],GI50 [20]
O=C(O)c1cccc(SSc2cccc(C(=O)O)c2)c1,> 100 µM (inactive),> 100 µM (inactive),> 100 µM (inactive),> 100 µM (inactive),> 100 µM (inactive),58.1 µM (inactive),> 100 µM (inactive),> 100 µM (inactive),> 100 µM (inactive),> 100 µM (inactive),> 100 µM (inactive),> 100 µM (inactive),> 100 µM (inactive),> 100 µM (inactive),> 100 µM (inactive),> 100 µM (inactive),> 100 µM (inactive),> 100 µM (inactive),> 100 µM (inactive),
COc1ccc(-n2sc3ncc([N+](=O)[O-])cc3c2=O)cc1,> 100 µM (inactive),> 100 µM (inactive),> 100 µM (inactive),> 100 µM (inactive),> 100 µM (inactive),34.4 µM (inactive),> 100 µM (inactive),> 100 µM (inactive),> 100 µM (inactive),> 100 µM (inactive),,> 100 µM (inactive),> 100 µM (inactive),> 100 µM (inactive),> 100 µM (inactive),> 100 µM (inactive),> 100 µM (inactive),> 100 µM (inactive),> 100 µM (inactive),> 100 µM (inactive)
O=c1oc2ccc3ccccc3c2cc1-c1nc2ccc([N+](=O)[O-])cc2o1,10.3 µM (inactive),25.5 µM (inactive),12.4 µM (inactive),8.57 µM (inactive),34.7 µM (inactive),18.9 µM (inactive),> 100 µM (inactive),> 58.6 µM (inactive),> 100 µM (inactive),59.4 µM (inactive),4.72 µM (inactive),> 100 µM (inactive),> 100 µM (inactive),22.5 µM (inactive),> 64.9 µM (inactive),20.5 µM (inactive),59 µM (inactive),10.6 µM (inactive),97.5 µM (inactive),
Cc1cc(C)nc(NS(=O)(=O)c2ccc(Nc3c4ccccc4nc4c(C(=O)NCCCN(CCO)CCO)cccc34)cc2)n1,14.8 µM (inactive),31.8 µM (inactive),> 10 µM (inactive),22.9 µM (inactive),11.5 µM (inactive),10.9 µM (inactive),8.36 µM (inactive),41.6 µM (inactive),14 µM (inactive),15.4 µM (inactive),,17.7 µM (inactive),30.1 µM (inactive),16.9 µM (inactive),14.2 µM (inactive),16.9 µM (inactive),14 µM (inactive),17.1 µM (inactive),8.22 µM (inactive),5.89 µM (inactive)
O=C1CC2OCC=C3CN4CCC56c7ccccc7N1C5C2C3CC46O (stereo not given),> 100 µM (inactive),> 100 µM (inactive),> 100 µM (inactive),> 100 µM (inactive),> 100 µM (inactive),47.5 µM (inactive),> 100 µM (inactive),> 100 µM (inactive),> 100 µM (inactive),> 100 µM (inactive),,> 100 µM (inactive),> 100 µM (inactive),> 100 µM (inactive),> 100 µM (inactive),> 100 µM (inactive),> 100 µM (inactive),,> 100 µM (inactive),> 100 µM (inactive)
COc1cc2cc(C(=O)N3CC(CCl)c4c3cc(N)c3ccccc43)[nH]c2cc1OCCN(C)C (stereo not given),< 0.005 µM (active),< 0.005 µM (active),< 0.005 µM (active),< 0.005 µM (active),,< 0.005 µM (active),< 0.005 µM (active),< 0.005 µM (active),< 0.005 µM (active),0.0053 µM (active),< 0.005 µM (active),< 0.005 µM (active),0.00734 µM (active),0.00628 µM (active),< 0.005 µM (active),< 0.005 µM (active),< 0.005 µM (active),< 0.005 µM (active),0.00597 µM (active),< 0.005 µM (active)
CCC(CON(C)c1ccccc1)(SC)SC,> 100 µM (inactive),> 100 µM (inactive),> 100 µM (inactive),> 100 µM (inactive),99.1 µM (inactive),> 100 µM (inactive),> 100 µM (inactive),82.6 µM (inactive),> 100 µM (inactive),13.5 µM (inactive),,> 100 µM (inactive),,> 100 µM (inactive),28.7 µM (inactive),> 100 µM (inactive),> 100 µM (inactive),> 100 µM (inactive),> 100 µM (inactive),> 100 µM (inactive)
Cc1oc2ccccc2c(=O)c1Cn1nnc2ccccc21,20.5 µM (inactive),80.7 µM (inactive),> 100 µM (inactive),41.6 µM (inactive),48.5 µM (inactive),,> 100 µM (inactive),25.5 µM (inactive),42.9 µM (inactive),> 100 µM (inactive),,39.4 µM (inactive),30.6 µM (inactive),53.3 µM (inactive),> 100 µM (inactive),34.3 µM (inactive),41.7 µM (inactive),> 100 µM (inactive),> 100 µM (inactive),21.8 µM (inactive)
CCOC(=O)C1=CNC(C(=O)OCC)C1c1cccn1-c1ccc(Cl)cc1[N+](=O)[O-] (stereo not given),16.6 µM (inactive),15.3 µM (inactive),19.1 µM (inactive),30.3 µM (inactive),,16 µM (inactive),27.9 µM (inactive),29.5 µM (inactive),31.2 µM (inactive),,14.6 µM (inactive),22 µM (inactive),10.6 µM (inactive),31.3 µM (inactive),15.4 µM (inactive),18.2 µM (inactive),15.7 µM (inactive),10 µM (inactive),18.2 µM (inactive),20.6 µM (inactive)
CCOc1cc(-c2nc3cc(F)ccc3s2)ccc1O,16.6 µM (inactive),17.2 µM (inactive),14.4 µM (inactive),16 µM (inactive),,11.5 µM (inactive),19.4 µM (inactive),17.6 µM (inactive),19.7 µM (inactive),15.3 µM (inactive),18.6 µM (inactive),15.8 µM (inactive),18.5 µM (inactive),26.2 µM (inactive),17.2 µM (inactive),15.7 µM (inactive),16.6 µM (inactive),,19.1 µM (inactive),5.64 µM (inactive)
[O-][S+](Nc1ccccc1)c1ccc(Cl)c(Cl)c1 (stereo not given),23.4 µM (inactive),73.5 µM (inactive),53.8 µM (inactive),62.5 µM (inactive),36.9 µM (inactive),21.9 µM (inactive),> 100 µM (inactive),69.8 µM (inactive),69.7 µM (inactive),56.6 µM (inactive),,> 100 µM (inactive),63.2 µM (inactive),47.9 µM (inactive),33.3 µM (inactive),26.4 µM (inactive),25.8 µM (inactive),26.1 µM (inactive),> 100 µM (inactive),33.7 µM (inactive)
CCOC(=O)c1nc2ccc(C(F)(F)F)cc2nc1Oc1ccc(OC)cc1,> 100 µM (inactive),> 100 µM (inactive),> 100 µM (inactive),> 100 µM (inactive),,,> 100 µM (inactive),> 100 µM (inactive),> 100 µM (inactive),62.8 µM (inactive),> 100 µM (inactive),> 100 µM (inactive),> 100 µM (inactive),> 100 µM (inactive),> 100 µM (inactive),> 100 µM (inactive),> 100 µM (inactive),> 100 µM (inactive),> 100 µM (inactive),> 100 µM (inactive)
O=C1CCCCC/C1=C\c1ccc(F)cc1,44.8 µM (inactive),> 100 µM (inactive),> 100 µM (inactive),> 100 µM (inactive),,51.5 µM (inactive),> 100 µM (inactive),> 100 µM (inactive),> 100 µM (inactive),> 100 µM (inactive),,> 100 µM (inactive),> 100 µM (inactive),95.5 µM (inactive),> 100 µM (inactive),> 100 µM (inactive),40.3 µM (inactive),> 100 µM (inactive),> 100 µM (inactive),
CCC(C)C(NC(=O)C(Cc1cccs1)NC(=O)C(CC(C)C)NC(=O)C(CC(C)C)NC(=O)C(CCCCN)NC(=O)C(CCCN=C(N)N)NC(=O)[C@H](Cc1ccc(O)cc1)NC(=O)C(NC(=O)C(C)NC(=O)C(N)CC(C)C)C(C)O)C(=O)NC(CC(C)C)C(N)=O (stereo not given in full) (H-[ξL][ξA][ξT]Y[ξR][ξK][ξL][ξL][ξ2Thi][ξI][ξL]-NH2),> 50 µM (inactive),> 50 µM (inactive),> 50 µM (inactive),> 50 µM (inactive),,> 50 µM (inactive),> 50 µM (inactive),> 50 µM (inactive),> 50 µM (inactive),> 50 µM (inactive),> 50 µM (inactive),> 50 µM (inactive),> 50 µM (inactive),> 50 µM (inactive),,> 50 µM (inactive),> 50 µM (inactive),> 50 µM (inactive),> 50 µM (inactive),> 50 µM (inactive)
COc1c2ccoc2nc2c(OC)c(OCC(O)C(C)(C)O)ccc12 (stereo not given) [EVOXINE],> 100 µM (inactive),> 100 µM (inactive),> 100 µM (inactive),> 100 µM (inactive),> 100 µM (inactive),> 100 µM (inactive),> 100 µM (inactive),> 100 µM (inactive),> 100 µM (inactive),> 100 µM (inactive),,> 100 µM (inactive),> 100 µM (inactive),> 100 µM (inactive),> 100 µM (inactive),> 100 µM (inactive),> 100 µM (inactive),,> 100 µM (inactive),> 100 µM (inactive)
